Measurements reported in US20210205292A1, “INHIBITORS OF CREB-CBP INTERACTION FOR TREATMENT OF LEUKEMIA” (The Board of Trustees of the Leland Stanford Junior …, priority 2016, published 2021).

How the values were obtained:
Format in all cases: cell-based
[1] = test system: Jukat (human T lymphocyte cell line for acute T cell leukemia); experiment: CellTiter Glo assay in Jukat cells
Protocol: (§1) The compounds prepared according to the methods described herein and tested for activity in the CellTiter Glo assay in HL60 (Human promyelocytic leukemia cell line), Jukat (human T lymphocyte cell line for acute T cell leukemia) and/or Nalm6 (human ALL cell line) cells.
(§2) Compounds were prepared according to the methods described herein and tested for activity in the CellTiter Glo assay in HL60 (Human promyelocytic leukemia cell line), Jukat (human T lymphocyte cell line for acute Tcell leukemia) and/or Nalm6 (human ALL cell line) cells.

[2] = test system: HL60 (Human promyelocytic leukemia cell line); experiment: CellTiter Glo assay in HL60 cells
Protocol: as §1, §2

[3] = test system: Nalm6 (human ALL cell line); experiment: CellTiter Glo assay in Nalm6 cells
Protocol: as §1, §2

SMILES | IC50 ([1]; second Table 4) | IC50 ([2]; HL-60, second Table 4) | also measured
N#Cc1cc(NC(=O)c2cc(F)ccc2O)ccc1F [Compound 20] | 1000 to 10000 nM | 1000 to 10000 nM | IC50 ([3]; NALM-6, second Table 4): 1000 to 10000 nM
O=C(Nc1ccc(Br)c(Cl)c1)c1ccc2cccnc2c1O [Compound 68] |  |  | IC50 ([1]; Table 5): 100 to 1000 nM; IC50 ([2]; HL-60, Table 5): 100 to 1000 nM; IC50 ([3]; NALM-6, Table 5): 100 to 1000 nM
O=C(Nc1cccc(F)c1)c1cc(F)ccc1O [Compound 33] | 1000 to 10000 nM | 1000 to 10000 nM | IC50 ([3]; NALM-6, second Table 4): 1000 to 10000 nM
O=C(Nc1cc(F)cc(F)c1)c1cc(F)ccc1O [Compound 41] |  | < 1000 nM | 
CC(=O)Oc1ccc(Cl)cc1C(=O)Nc1ccc([N+](=O)[O-])cc1Cl [Compound 24] | < 1000 nM | < 1000 nM | IC50 ([3]; NALM-6, second Table 4): < 1000 nM
O=C(Nc1ccc(F)c(C(F)(F)F)c1)c1cc(F)ccc1O [Compound 48] | < 1000 nM | < 1000 nM | IC50 ([3]; NALM-6, second Table 4): 1000 to 10000 nM
N#Cc1cc(Cl)ccc1NC(=O)c1ccc2cccnc2c1O [Compound 84] |  |  | IC50 ([1]; Table 5): < 100 nM; IC50 ([2]; HL-60, Table 5): 100 to 1000 nM; IC50 ([3]; NALM-6, Table 5): 100 to 1000 nM
N#Cc1ccc(NC(=O)c2cc(-c3ccccc3)ccc2O)cc1 [Compound 15] | < 1000 nM | 1000 to 10000 nM | IC50 ([3]; NALM-6, second Table 4): 1000 to 10000 nM
O=C(Nc1c(Cl)cccc1Cl)c1ccc2cccnc2c1O [Compound 87] |  |  | IC50 ([2]; HL-60, Table 5): 100 to 1000 nM
Cc1cc(NC(=O)c2cc(F)ccc2O)ccc1C#N [Compound 6] |  | < 1000 nM | 
N#Cc1ccc(NC(=O)c2ccccc2O)cc1 [Compound 1] |  | 1000 to 10000 nM | 
COc1ccc(NC(=O)c2cc(F)ccc2O)cc1 [Compound 54] | > 10000 nM | 1000 to 10000 nM | IC50 ([3]; NALM-6, second Table 4): > 10000 nM
O=C(Nc1ccc(Cl)cc1F)c1cc(F)ccc1O [Compound 37] | < 1000 nM | 1000 to 10000 nM | IC50 ([3]; NALM-6, second Table 4): 1000 to 10000 nM
O=C(Nc1cc(Cl)cc(Cl)c1)c1cc(F)ccc1O [Compound 42] | < 1000 nM | < 1000 nM | IC50 ([3]; NALM-6, second Table 4): 1000 to 10000 nM
N#Cc1ccc(NC(=O)c2cc(-c3ccccc3)c3cccnc3c2O)cc1 [Compound 65] |  |  | IC50 ([1]; Table 5): 100 to 1000 nM; IC50 ([2]; HL-60, Table 5): 100 to 1000 nM; IC50 ([3]; NALM-6, Table 5): 100 to 1000 nM
Cc1cc(NC(=O)c2cc(Cl)ccc2O)ccc1Cl [Compound 35] |  | < 1000 nM | 
O=C(Nc1cc(Cl)ccc1Cl)c1ccc2cccnc2c1O [Compound 83] |  |  | IC50 ([1]; Table 5): 100 to 1000 nM; IC50 ([2]; HL-60, Table 5): 1000 to 10000 nM; IC50 ([3]; NALM-6, Table 5): 100 to 1000 nM
O=C(Nc1ccc(F)c(F)c1)c1cc(F)ccc1O [Compound 32] | < 1000 nM | < 1000 nM | IC50 ([3]; NALM-6, second Table 4): 1000 to 10000 nM
O=C(Nc1ccccc1C(F)(F)F)c1cc(F)ccc1O [Compound 62] |  | 1000 to 10000 nM | 
Cc1ccc(C(F)(F)F)cc1NC(=O)c1cc(F)ccc1O [Compound 63] | < 1000 nM | < 1000 nM | IC50 ([3]; NALM-6, second Table 4): 1000 to 10000 nM
O=C(Nc1ccc(C(F)(F)F)cc1)c1ccc2cccnc2c1O [Compound 66] |  |  | IC50 ([1]; Table 5): 100 to 1000 nM; IC50 ([2]; HL-60, Table 5): 100 to 1000 nM; IC50 ([3]; NALM-6, Table 5): 100 to 1000 nM
N#Cc1ccc(NC(=O)c2cc(Cl)c(F)cc2O)cc1 [Compound 161] | < 1000 nM | < 1000 nM | IC50 ([3]; NALM-6, second Table 4): > 10000 nM

SMILES | IC50 ([1]; second Table 4) | IC50 ([2]; HL-60, second Table 4) | also measured
O=C(Nc1cc(C(F)(F)F)cc(C(F)(F)F)c1)c1cc(F)ccc1O [Compound 51] | < 1000 nM | < 1000 nM | IC50 ([3]; NALM-6, second Table 4): < 1000 nM
O=C(Nc1cc(C(F)(F)F)cc(C(F)(F)F)c1)c1cc(Br)ccc1O [Compound 159] | < 1000 nM | < 1000 nM | IC50 ([3]; NALM-6, second Table 4): < 1000 nM
O=C(Nc1ccc(F)cc1F)c1cc(F)ccc1O [Compound 39] | 1000 to 10000 nM | 1000 to 10000 nM | IC50 ([3]; NALM-6, second Table 4): 1000 to 10000 nM
N#Cc1ccc(NC(=O)c2cc(-c3ccco3)c3cccnc3c2O)cc1 [Compound 72] |  |  | IC50 ([1]; Table 5): 100 to 1000 nM; IC50 ([2]; HL-60, Table 5): 100 to 1000 nM; IC50 ([3]; NALM-6, Table 5): 100 to 1000 nM
N#Cc1ccc(NC(=O)c2cc(Cl)ccc2O)cc1 [Compound 3] |  | < 1000 nM | 
N#Cc1ccc(NC(=O)c2ccc3cccnc3c2O)c(Cl)c1 [Compound 77] |  |  | IC50 ([1]; Table 5): 100 to 1000 nM; IC50 ([2]; HL-60, Table 5): 100 to 1000 nM; IC50 ([3]; NALM-6, Table 5): 100 to 1000 nM
N#Cc1ccc(NC(=O)c2ccc(Cl)cc2O)cc1 [Compound 16] |  | < 1000 nM | 
O=C(Nc1cc(C(F)(F)F)cc(C(F)(F)F)c1)c1ccc2cccnc2c1O [Compound 70] |  |  | IC50 ([1]; Table 5): 100 to 1000 nM; IC50 ([2]; HL-60, Table 5): 1000 to 10000 nM; IC50 ([3]; NALM-6, Table 5): 1000 to 10000 nM
N#Cc1ccc(NC(=O)c2ccc3cccnc3c2O)c(C#N)c1 [Compound 85] |  |  | IC50 ([1]; Table 5): 100 to 1000 nM; IC50 ([2]; HL-60, Table 5): 100 to 1000 nM; IC50 ([3]; NALM-6, Table 5): 100 to 1000 nM
N#Cc1ccc(C#N)c(NC(=O)c2ccc3cccnc3c2O)c1 [Compound 88] |  |  | IC50 ([2]; HL-60, Table 5): 100 to 1000 nM
Cc1cc(Cl)ccc1NC(=O)c1cc(F)ccc1O [Compound 36] |  | 1000 to 10000 nM | 
N#Cc1ccc(NC(=O)c2cc(F)ccc2O)cc1 [Compound 8] |  | < 1000 nM | 
O=C(Nc1cc(F)cc(F)c1)c1ccc2cccnc2c1O [Compound 69] |  |  | IC50 ([1]; Table 5): 100 to 1000 nM; IC50 ([2]; HL-60, Table 5): 100 to 1000 nM; IC50 ([3]; NALM-6, Table 5): 100 to 1000 nM
CC(=O)Oc1c(C(=O)Nc2ccc(C#N)cc2)ccc2cccnc12 [Compound 74] |  |  | IC50 ([2]; HL-60, Table 5): 100 to 1000 nM
O=C(Nc1ccccc1F)c1cc(F)ccc1O [Compound 61] |  | 1000 to 10000 nM | 
N#Cc1ccc(NC(=O)c2cc(Br)ccc2O)cc1Cl [Compound 7] |  | < 1000 nM | 
N#Cc1ccc(NC(=O)c2ccc(F)cc2O)cc1 [Compound 10] |  | < 1000 nM | 
N#Cc1ccc(NC(=O)c2ccc(Br)cc2O)cc1 [Compound 9] |  | < 1000 nM | 
N#Cc1ccc(NC(=O)c2ccc(Br)cc2O)c(Cl)c1 [Compound 11] |  | < 1000 nM | 
N#Cc1ccc(NC(=O)c2ccc(Br)cc2O)cc1Cl [Compound 13] |  | < 1000 nM | 
CC(=O)Oc1ccc(F)cc1C(=O)Nc1ccc(Br)c(Cl)c1 [Compound 27] | < 1000 nM | < 1000 nM | 
CCOC(=O)c1ccc(NC(=O)c2cc(F)ccc2O)cc1 [Compound 57] | 1000 to 10000 nM | 1000 to 10000 nM | IC50 ([3]; NALM-6, second Table 4): 1000 to 10000 nM

SMILES | IC50 ([1]; second Table 4) | IC50 ([2]; HL-60, second Table 4) | also measured
O=C(Nc1cccc(Cl)c1)c1cc(F)ccc1O [Compound 43] | 1000 to 10000 nM | 1000 to 10000 nM | IC50 ([3]; NALM-6, second Table 4): 1000 to 10000 nM
O=C(Nc1ccc([N+](=O)[O-])cc1Cl)c1cc(Cl)ccc1O [Compound 23] | < 1000 nM | < 1000 nM | IC50 ([3]; NALM-6, second Table 4): < 1000 nM
O=C(Nc1ccc(Br)c(Cl)c1)c1cc(Cl)ccc1O [Compound 30] |  | < 1000 nM | 
O=C(Nc1ccc(Cl)cc1)c1ccc2cccnc2c1O [Compound 67] |  |  | IC50 ([1]; Table 5): 100 to 1000 nM; IC50 ([2]; HL-60, Table 5): 100 to 1000 nM; IC50 ([3]; NALM-6, Table 5): 100 to 1000 nM
O=C(Nc1ccc([N+](=O)[O-])cc1Cl)c1ccc2cccnc2c1O [Compound 82] |  |  | IC50 ([1]; Table 5): 100 to 1000 nM; IC50 ([2]; HL-60, Table 5): 100 to 1000 nM; IC50 ([3]; NALM-6, Table 5): < 100 nM
O=C(Nc1ccc(Cl)cc1Cl)c1cc(F)ccc1O [Compound 38] | > 10000 nM | < 1000 nM | IC50 ([3]; NALM-6, second Table 4): 1000 to 10000 nM
O=C(Nc1ccc(OC(F)(F)F)c(Cl)c1)c1cc(F)ccc1O [Compound 46] | < 1000 nM | < 1000 nM | IC50 ([3]; NALM-6, second Table 4): < 1000 nM
N#Cc1ccc(NC(=O)c2ccc(Br)cc2O)c(F)c1 [Compound 12] |  | < 1000 nM | 
O=C(Nc1ccc(-c2ccccc2)cc1)c1cc(F)ccc1O [Compound 53] |  | 1000 to 10000 nM | 
N#Cc1ccc(NC(=O)c2cc(Br)ccc2O)cc1 [Compound 2] |  | < 1000 nM | 
Cc1ccc(NC(=O)c2ccc3cccnc3c2O)c(C)c1 [Compound 89] |  |  | IC50 ([2]; HL-60, Table 5): 1000 to 10000 nM
COc1cc(NC(=O)c2cc(F)ccc2O)ccc1F [Compound 55] |  | 1000 to 10000 nM | 
Cc1ccc(NC(=O)c2cc(F)ccc2O)cc1C#N [Compound 19] |  | 1000 to 10000 nM | 
O=C(Nc1ccc(Br)c(Cl)c1)c1cc(F)ccc1O [Compound 26] |  | < 1000 nM | 
O=C(Nc1ccc([N+](=O)[O-])cc1)c1cc(F)ccc1O [Compound 160] |  | < 1000 nM | 
O=C(Nc1ccc([N+](=O)[O-])cc1Cl)c1cc(F)ccc1O [Compound 22] |  | < 1000 nM | 
N#Cc1ccc(NC(=O)c2cc(F)ccc2O)cc1Cl [Compound 5] |  | < 1000 nM | 
Cc1cc(NC(=O)c2cc(F)ccc2O)ccc1Cl [Compound 34] |  | < 1000 nM | 
Cc1cc(NC(=O)c2cc(Cl)ccc2O)ccc1[N+](=O)[O-] [Compound 25] |  | < 1000 nM | 
Cc1cc(NC(=O)c2cc(F)ccc2O)ccc1[N+](=O)[O-] [Compound 21] |  | < 1000 nM | 
